From US8802597B2, “Herbicidal pyrimidines” (E I du Pont de Nemours and Company, priority 2003, dated 2014)
Read-outs that look alike come from different tables or passages of the source.

How the values were obtained:
Format in all cases: in vivo
wild oat (Avena fatua) = test: Test B postemergence; conditions: scale 0 to 100 (0 no effect, 100 complete control)
How it was run: (§1)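 Visual rating, 0 (no effect) to 100 (complete control) versus controls, taken 13–15 days after treatment in greenhouse. Compounds formulated in non-phytotoxic solvent plus surfactant; pre: sprayed after seeding; post: plants at 1- to 4-leaf stage, 2–18 cm.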

[1] = test system: blackgrass (Alopecurus myosuroides); test: Test B postemergence; conditions: scale 0 to 100 (0 no effect, 100 complete control)
How it was run: as §1

[2] = test system: wheat (Triticum aestivum); test: Test B pre/postemergence; conditions: scale 0 to 100 (0 no effect, 100 complete control); for plant injury at 62 g/ha: Triticum aestivum, 62 g ai/ha
How it was run: as §1

[3] = test system: barnyardgrass (Echinochloa crus-galli); test: Test B pre/postemergence; conditions: scale 0 to 100 (0 no effect, 100 complete control); for pest or weed control at 62 g/ha: Echinochloa crus-galli, 62 g ai/ha
How it was run: as §1

[4] = test system: cocklebur (Xanthium strumarium); test: Test B pre/postemergence; conditions: for pest or weed control at 62 g/ha: Xanthium strumarium, 62 g ai/ha
How it was run: as §1

[5] = test system: pigweed (Amaranthus retroflexus); test: Test B pre/postemergence; conditions: for pest or weed control at 62 g/ha: Amaranthus retroflexus, 62 g ai/ha
How it was run: as §1

[6] = test system: velvetleaf (Abutilon theophrasti); test: Test B pre/postemergence; conditions: for pest or weed control at 62 g/ha: Abutilon theophrasti, 62 g ai/ha
How it was run: as §1

[7] = test system: morningglory (Ipomoea coccinea); test: Test B pre/postemergence; conditions: for pest or weed control at 62 g/ha: Ipomoea, 62 g ai/ha
How it was run: as §1

[8] = test system: crabgrass (Digitaria sanguinalis); test: Test B pre/postemergence; conditions: for pest or weed control at 62 g/ha: Digitaria sanguinalis, 62 g ai/ha
How it was run: as §1

[9] = test system: giant foxtail (Setaria faberii); test: Test B pre/postemergence; conditions: for pest or weed control at 62 g/ha: Setaria faberi, 62 g ai/ha
How it was run: as §1

[10] = test system: Surinam grass (Brachiaria decumbens); test: Test B pre/postemergence; conditions: for pest or weed control at 62 g/ha: Urochloa decumbens, 62 g ai/ha
How it was run: as §1

corn (Zea mays) = test: Test B pre/postemergence
How it was run: as §1

[11] = test system: lambsquarters (Chenopodium album); test: Test B pre/postemergence; conditions: for pest or weed control at 62 g/ha: Chenopodium album, 62 g ai/ha
How it was run: as §1

[12] = test system: duck salad (Heteranthera limosa); test: Test B flooded paddy test; conditions: Heteranthera limosa, Flood, scale 0 to 100, read-out: Plant response rating, Ducksalad
How it was run: (§2)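 Rice, umbrella sedge, duck salad and barnyardgrass grown to 2-leaf stage under flooded paddy conditions and treated with formulated test chemicals. Kept in greenhouse 13–15 days, then visually rated against untreated controls on a 0–100 scale (0 no effect, 100 complete control).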

rice (Oryza sativa) = test: Test B flooded paddy test; conditions: Oryza sativa, Flood, scale 0 to 100, read-out: Plant response rating, Rice
How it was run: as §2

[13] = test system: barnyardgrass (Echinochloa crus-galli); test: Test B flooded paddy test; conditions: Echinochloa crus-galli, Flood, scale 0 to 100, read-out: Plant response rating, Barnyardgrass
How it was run: as §2

[14] = test system: umbrella sedge (Cyperus difformis); test: Test B flooded paddy test; conditions: Cyperus difformis, Flood, scale 0 to 100, read-out: Plant response rating, Sedge, Umbrella
How it was run: as §2

[15] = Postemergence, 125 g ai/ha, scale 0 to 100 (0 no effect, 100 complete control)
[16] = Preemergence, 125 g ai/ha, scale 0 to 100 (0 no effect, 100 complete control)

**Q.** Which results are given for `Nc1nc(C2CC2)nc(C(=O)[O-])c1Br.[Na+]` [Compound 113, 6-amino-5-bromo-2-cyclopropyl-4-pyrimidinecarboxylic acid monosodium salt]?
**A.** Oat, Wild plant response rating (wild oat (Avena fatua); 125 g ai/ha): 50; pest or weed control at 62 g/ha (wild oat (Avena fatua); Avena fatua, post-emergence, 62 g ai/ha, read-out: Oat, Wild plant response rating): 40%; Blackgrass plant response rating ([1]; 125 g ai/ha): 40; pest or weed control at 62 g/ha ([1]; Alopecurus myosuroides, post-emergence, 62 g ai/ha, read-out: Blackgrass plant response rating): 30%; Wheat plant response rating ([2]; Postemergence, 125 g ai/ha): 50; Plant response rating, Wheat ([2]; Preemergence, 125 g ai/ha): 60; plant injury at 62 g/ha ([2]; post-emergence, Postemergence, read-out: Wheat plant response rating): 30%; plant injury at 62 g/ha ([2]; pre-emergence, Preemergence, read-out: Plant response rating, Wheat): 10%; pest or weed control at 62 g/ha ([3]; post-emergence, Postemergence, read-out: Barnyardgrass plant response rating): 50%; pest or weed control at 62 g/ha ([3]; pre-emergence, Preemergence, read-out: Plant response rating, Barnyardgrass): 0%; Barnyardgrass plant response rating ([3]; Postemergence, 125 g ai/ha): 80; Plant response rating, Barnyardgrass ([3]; Preemergence, 125 g ai/ha): 20; Cocklebur plant response rating [4, 15]: 90; Plant response rating, Cocklebur [4, 16]: 80; pest or weed control at 62 g/ha ([4]; post-emergence, Postemergence, scale 0 to 100 (0 no effect, 100 complete control), read-out: Cocklebur plant response rating): 90%; pest or weed control at 62 g/ha ([4]; pre-emergence, Preemergence, scale 0 to 100, 0 no effect, 100 complete control, read-out: Plant response rating, Cocklebur): 70%; pest or weed control at 62 g/ha ([5]; post-emergence, Postemergence, scale 0 to 100 (0 no effect, 100 complete control), read-out: Pigweed plant response rating): 70%; pest or weed control at 62 g/ha ([5]; pre-emergence, Preemergence, scale 0 to 100, 0 no effect, 100 complete control, read-out: Plant response rating, Pigweed): 70%; Pigweed plant response rating [5, 15]: 90; Plant response rating, Pigweed [5, 16]: 90; pest or weed control at 62 g/ha ([6]; post-emergence, Postemergence, scale 0 to 100 (0 no effect, 100 complete control), read-out: Velvetleaf plant response rating): 60%; pest or weed control at 62 g/ha ([6]; pre-emergence, Preemergence, scale 0 to 100, 0 no effect, 100 complete control, read-out: Plant response rating, Velvetleaf): 80%; Velvetleaf plant response rating [6, 15]: 80; Plant response rating, Velvetleaf [6, 16]: 90; pest or weed control at 62 g/ha ([7]; post-emergence, Postemergence, scale 0 to 100 (0 no effect, 100 complete control), read-out: Morningglory plant response rating): 90%; pest or weed control at 62 g/ha ([7]; pre-emergence, Preemergence, scale 0 to 100, 0 no effect, 100 complete control, read-out: Plant response rating, Morningglory): 50%; Morningglory plant response rating [7, 15]: 90; Plant response rating, Morningglory [7, 16]: 60; pest or weed control at 62 g/ha ([8]; post-emergence, Postemergence, scale 0 to 100 (0 no effect, 100 complete control), read-out: Crabgrass plant response rating): 20%; pest or weed control at 62 g/ha ([8]; pre-emergence, Preemergence, scale 0 to 100, 0 no effect, 100 complete control, read-out: Plant response rating, Crabgrass): 40%; Crabgrass plant response rating [8, 15]: 40; Plant response rating, Crabgrass [8, 16]: 70; Foxtail, Giant plant response rating [9, 15]: 50; Plant response rating, Foxtail, Giant [9, 16]: 10; pest or weed control at 62 g/ha ([9]; post-emergence, Postemergence, scale 0 to 100 (0 no effect, 100 complete control), read-out: Foxtail, Giant plant response rating): 20%; pest or weed control at 62 g/ha ([9]; pre-emergence, Preemergence, scale 0 to 100, 0 no effect, 100 complete control, read-out: Plant response rating, Foxtail, Giant): 0%; Surinam Grass plant response rating [10, 15]: 80; Plant response rating, Surinam Grass [10, 16]: 60; pest or weed control at 62 g/ha ([10]; post-emergence, Postemergence, scale 0 to 100 (0 no effect, 100 complete control), read-out: Surinam Grass plant response rating): 30%; pest or weed control at 62 g/ha ([10]; pre-emergence, Preemergence, scale 0 to 100, 0 no effect, 100 complete control, read-out: Plant response rating, Surinam Grass): 20%; Corn plant response rating (corn (Zea mays); [15]): 40; Plant response rating, Corn (corn (Zea mays); [16]): 20; plant injury at 62 g/ha (corn (Zea mays); Zea mays, post-emergence, Postemergence, 62 g ai/ha, scale 0 to 100 (0 no effect, 100 complete control), read-out: Corn plant response rating): 10%; Corn plant response rating (crop injury, 0 = no effect, 100 = complete kill) at 62 g/ha (corn (Zea mays); Zea mays, pre-emergence, Preemergence, 62 g ai/ha, scale 0 to 100, 0 no effect, 100 complete control): 0%; pest or weed control at 62 g/ha ([11]; post-emergence, Postemergence, scale 0 to 100 (0 no effect, 100 complete control), read-out: Lambsquarters plant response rating): 80%; pest or weed control at 62 g/ha ([11]; pre-emergence, Preemergence, scale 0 to 100, 0 no effect, 100 complete control, read-out: Plant response rating, Lambsquarters): 70%; Lambsquarters plant response rating [11, 15]: 90; Plant response rating, Lambsquarters [11, 16]: 80; pest or weed control at 125 g/ha ([12]; 125 g ai/ha): 0%; pest or weed control at 500 g/ha ([12]; 500 g ai/ha): 0%; plant injury at 125 g/ha (rice (Oryza sativa); 125 g ai/ha): 0%; plant injury at 500 g/ha (rice (Oryza sativa); 500 g ai/ha): 0%; pest or weed control at 125 g/ha ([13]; 125 g ai/ha): 0%; pest or weed control at 500 g/ha ([13]; 500 g ai/ha): 0%; pest or weed control at 125 g/ha ([14]; 125 g ai/ha): 0%; pest or weed control at 500 g/ha ([14]; 500 g ai/ha): 0%
